Experimental data: PubChem BioAssay (NCI)
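These data come from cells grown in 96-well plates and exposed to compound for 48 hours at five concentrations. TGI denotes the concentration required for complete inhibition of growth.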

How the values were obtained:
Assay in all cases: growth of human tumour cells (NCI), 48 h
COLO 205 colon = test system: COLO 205 colon
HS 578T breast = test system: HS 578T breast
MALME-3M melanoma = test system: MALME-3M melanoma
OVCAR-3 ovarian = test system: OVCAR-3 ovarian
UACC-257 melanoma = test system: UACC-257 melanoma
A498 renal = test system: A498 renal
CCRF-CEM leukemia = test system: CCRF-CEM leukemia
SK-MEL-2 melanoma = test system: SK-MEL-2 melanoma
UACC-62 melanoma = test system: UACC-62 melanoma
NCI-H460 lung = test system: NCI-H460 lung
SF-295 CNS = test system: SF-295 CNS
HCC-2998 colon = test system: HCC-2998 colon
MOLT-4 leukemia = test system: MOLT-4 leukemia
MDA-MB-231 breast = test system: MDA-MB-231 breast
SF-539 CNS = test system: SF-539 CNS
SN12C renal = test system: SN12C renal
IGROV1 ovarian = test system: IGROV1 ovarian
UO-31 renal = test system: UO-31 renal
K-562 leukemia = test system: K-562 leukemia
786-0 renal = test system: 786-0 renal
OVCAR-5 ovarian = test system: OVCAR-5 ovarian
MDA-N = test system: MDA-N
TK-10 renal = test system: TK-10 renal
SK-MEL-28 melanoma = test system: SK-MEL-28 melanoma
NCI/ADR-RES ovarian = test system: NCI/ADR-RES ovarian
NCI-H522 lung = test system: NCI-H522 lung
A549 NSCLC = test system: A549 NSCLC
HOP-92 NSCLC = test system: HOP-92 NSCLC
SW-620 colon = test system: SW-620 colon
RXF 393 renal = test system: RXF 393 renal
BT-549 breast = test system: BT-549 breast
U251 CNS = test system: U251 CNS
T-47D breast = test system: T-47D breast
HCT-15 colon = test system: HCT-15 colon
DU-145 prostate = test system: DU-145 prostate
CAKI-1 renal = test system: CAKI-1 renal
HCT-116 colon = test system: HCT-116 colon
KM12 colon = test system: KM12 colon
HL-60(TB) leukemia = test system: HL-60(TB) leukemia
HOP-62 NSCLC = test system: HOP-62 NSCLC
HT29 colon = test system: HT29 colon
MDA-MB-435 = test system: MDA-MB-435
M14 melanoma = test system: M14 melanoma
OVCAR-8 ovarian = test system: OVCAR-8 ovarian
PC-3 prostate = test system: PC-3 prostate
SR leukemia = test system: SR leukemia
NCI-H23 lung = test system: NCI-H23 lung
SNB-75 CNS = test system: SNB-75 CNS
SNB-19 CNS = test system: SNB-19 CNS
SK-OV-3 ovarian = test system: SK-OV-3 ovarian
LOX IMVI melanoma = test system: LOX IMVI melanoma
EKVX NSCLC = test system: EKVX NSCLC
SK-MEL-5 melanoma = test system: SK-MEL-5 melanoma
SF-268 CNS = test system: SF-268 CNS
ACHN renal = test system: ACHN renal
RPMI-8226 leukemia = test system: RPMI-8226 leukemia
NCI-H226 lung = test system: NCI-H226 lung
MCF7 breast = test system: MCF7 breast
OVCAR-4 ovarian = test system: OVCAR-4 ovarian

SMILES: CCOC(=O)NC(Nc1ccc(OC(F)(F)F)cc1)(C(F)(F)F)C(F)(F)F
- TGI (COLO 205 colon): > 100 µM
- TGI (HS 578T breast): > 100 µM
- TGI (MALME-3M melanoma): > 100 µM
- TGI (OVCAR-3 ovarian): > 100 µM
- TGI (UACC-257 melanoma): > 100 µM
- TGI (A498 renal): > 100 µM
- TGI (CCRF-CEM leukemia): > 100 µM
- TGI (SK-MEL-2 melanoma): > 100 µM
- TGI (UACC-62 melanoma): > 100 µM
- TGI (NCI-H460 lung): > 100 µM
- TGI (SF-295 CNS): > 100 µM
- TGI (HCC-2998 colon): > 100 µM
- TGI (MOLT-4 leukemia): > 100 µM
- TGI (MDA-MB-231 breast): > 100 µM
- TGI (SF-539 CNS): > 100 µM
- TGI (SN12C renal): > 100 µM
- TGI (IGROV1 ovarian): > 100 µM
- TGI (UO-31 renal): > 100 µM
- TGI (K-562 leukemia): > 100 µM
- TGI (786-0 renal): > 100 µM
- TGI (OVCAR-5 ovarian): > 100 µM
- TGI (MDA-N): > 100 µM
- TGI (TK-10 renal): > 100 µM
- TGI (SK-MEL-28 melanoma): > 100 µM
- TGI (NCI/ADR-RES ovarian): > 100 µM
- TGI (NCI-H522 lung): > 100 µM
- TGI (A549 NSCLC): > 100 µM
- TGI (HOP-92 NSCLC): > 100 µM
- TGI (SW-620 colon): > 100 µM
- TGI (RXF 393 renal): > 100 µM
- TGI (BT-549 breast): > 100 µM
- TGI (U251 CNS): > 100 µM
- TGI (T-47D breast): > 100 µM
- TGI (HCT-15 colon): > 100 µM
- TGI (DU-145 prostate): > 100 µM
- TGI (CAKI-1 renal): > 100 µM
- TGI (HCT-116 colon): > 100 µM
- TGI (KM12 colon): > 100 µM
- TGI (HL-60(TB) leukemia): > 100 µM
- TGI (HOP-62 NSCLC): > 100 µM
- TGI (HT29 colon): > 100 µM
- TGI (MDA-MB-435): > 100 µM
- TGI (M14 melanoma): > 100 µM
- TGI (OVCAR-8 ovarian): > 100 µM
- TGI (PC-3 prostate): > 100 µM
- TGI (SR leukemia): > 100 µM
- TGI (NCI-H23 lung): > 100 µM
- TGI (SNB-75 CNS): > 100 µM
- TGI (SNB-19 CNS): > 100 µM
- TGI (SK-OV-3 ovarian): > 100 µM
- TGI (LOX IMVI melanoma): > 100 µM
- TGI (EKVX NSCLC): > 100 µM
- TGI (SK-MEL-5 melanoma): > 100 µM
- TGI (SF-268 CNS): > 100 µM
- TGI (ACHN renal): > 100 µM
- TGI (RPMI-8226 leukemia): > 100 µM
- TGI (NCI-H226 lung): > 100 µM
- TGI (MCF7 breast): > 100 µM

SMILES: NCCc1c[nH]c2ccc(OC(=O)C(=O)O)cc12
- TGI (COLO 205 colon): > 100 µM
- TGI (HS 578T breast): > 100 µM
- TGI (MALME-3M melanoma): > 100 µM
- TGI (OVCAR-3 ovarian): > 100 µM
- TGI (UACC-257 melanoma): > 100 µM
- TGI (A498 renal): > 100 µM
- TGI (CCRF-CEM leukemia): > 100 µM
- TGI (OVCAR-4 ovarian): > 100 µM
- TGI (SK-MEL-2 melanoma): > 100 µM
- TGI (UACC-62 melanoma): > 100 µM
- TGI (NCI-H460 lung): > 100 µM
- TGI (SF-295 CNS): > 100 µM
- TGI (HCC-2998 colon): > 100 µM
- TGI (MOLT-4 leukemia): > 100 µM
- TGI (MDA-MB-231 breast): > 100 µM
- TGI (SF-539 CNS): > 100 µM
- TGI (SN12C renal): > 100 µM
- TGI (IGROV1 ovarian): > 100 µM
- TGI (UO-31 renal): > 100 µM
- TGI (K-562 leukemia): > 100 µM
- TGI (786-0 renal): > 100 µM
- TGI (OVCAR-5 ovarian): > 100 µM
- TGI (MDA-N): > 100 µM
- TGI (TK-10 renal): > 100 µM
- TGI (SK-MEL-28 melanoma): > 100 µM
- TGI (NCI/ADR-RES ovarian): > 100 µM
- TGI (NCI-H522 lung): > 100 µM
- TGI (A549 NSCLC): > 100 µM
- TGI (HOP-92 NSCLC): > 100 µM
- TGI (SW-620 colon): > 100 µM
- TGI (RXF 393 renal): > 100 µM
- TGI (BT-549 breast): > 100 µM
- TGI (U251 CNS): > 100 µM
- TGI (T-47D breast): > 100 µM
- TGI (HCT-15 colon): > 100 µM
- TGI (DU-145 prostate): > 100 µM
- TGI (CAKI-1 renal): > 100 µM
- TGI (HCT-116 colon): > 100 µM
- TGI (KM12 colon): > 100 µM
- TGI (HL-60(TB) leukemia): 23.2 µM
- TGI (HOP-62 NSCLC): > 100 µM
- TGI (HT29 colon): > 100 µM
- TGI (MDA-MB-435): > 100 µM
- TGI (M14 melanoma): > 100 µM
- TGI (OVCAR-8 ovarian): > 100 µM
- TGI (PC-3 prostate): > 100 µM
- TGI (SR leukemia): > 100 µM
- TGI (NCI-H23 lung): > 100 µM
- TGI (SNB-75 CNS): > 100 µM
- TGI (SNB-19 CNS): > 100 µM
- TGI (SK-OV-3 ovarian): > 100 µM
- TGI (LOX IMVI melanoma): > 100 µM
- TGI (EKVX NSCLC): > 100 µM
- TGI (SK-MEL-5 melanoma): > 100 µM
- TGI (SF-268 CNS): > 100 µM
- TGI (ACHN renal): > 100 µM
- TGI (RPMI-8226 leukemia): > 100 µM
- TGI (NCI-H226 lung): > 100 µM
- TGI (MCF7 breast): > 100 µM
